One substance from patent US20240101602A1, “ANTIMICROBIAL PEPTIDES AND METHOD OF PREVENTING OR TREATING INFECTION BY USING THE SAME” (priority 2020, published 2024) can be followed below.

Assay [1] relates to Staphylococcus epidermidis ATCC 14990.
Assay [2] has as its system Xanthomonas euvesicatoria strain Xvt28. The assay can be described thus: MIC and MBC by serial dilution in 96-well plate. It counts as cell-based. The conditions noted are these: Xev Xvt28; Table 7. On the procedure:
(§1) The effect of peptide length on the antimicrobial activity was investigated by deciding the minimal inhibitory concentration (MIC) and minimal bactericidal concentration (MBC) for each peptide against the pathogen with the media and growth conditions of phytopathogenic bacteria and E. coli as described in Table 1. Single bacterial colony grown on an optimal rich agar medium was picked, and each grew in 3 mL of the same rich liquid medium for 4 to 6 h.
(§2) For experiments carried out in the rich medium, the bacterial broth culture was then diluted in the same medium to give a final concentration of OD600=0.08, and then further diluted 100 folds in the same medium.
(§3) For experiments carried out in the minimal medium, the bacterial cells were collected from the bacterial liquid culture by centrifugation, re-suspended in an optimal minimal medium to give a final concentration of OD600=0.08, and then further diluted 100 folds in the same minimal medium.
(§4) Fifty microliters of serially diluted peptides (2-fold the final concentration) were added in a 96-well polystyrene plate with 50 μL of the bacterial culture. The final concentrations of peptides were 0, 2, 4, 8, 16 and 32 μg/mL. The plates were incubated at an optimal temperature without shaking.
(§5) MBC was determined as the lowest peptide concentration at which no colonies formed.

For assay [3], the system named is Xanthomonas campestris pv. campestris strain Xcc17. The assay can be described thus: MIC and MBC by serial dilution in 96-well plate. It is filed as cell-based. Particulars: Xcc Xcc17; Table 7. As for the experimental part: as §1, §2, §3, §4, §5
Another assay concerns Botrytis cinerea. It is filed as cell-based. The conditions noted are these: Bc; optimal minimal medium, crude peptides (Table 9).
The subject of a further assay is Eco DH5α. Briefly: MIC and MBC by serial dilution in 96-well plate. It is filed as cell-based, Escherichia coli. The conditions noted are these: Table 7. The method in brief:
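Log-phase bacteria in rich or minimal medium were adjusted to OD600=0.08, diluted 100-fold, and mixed 1:1 with 2-fold serial peptide dilutions (final 0–32 μg/mL). Plates were incubated at the optimal temperature without shaking. MBC is the lowest peptide concentration yielding no colonies.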

Another assay has as its system Cgl FST02. It is filed as cell-based, Colletotricum gloeosporioides. The conditions noted are these: Cgl FST02; optimal minimal medium, crude peptides (Table 9).

In general, MBC refers to the smallest concentration meeting the test's criterion for killing. What is called MIC is the smallest concentration in the dilution series that meets the test's criterion for growth inhibition.

On to Ac-WKKLKKLLKKL-NH2 [pepD3], for which the MBC in assay [1] was 32 µg/mL; in assay [2], 3.0 µg/mL; in assay [3], 2.0 µg/mL; against Eco DH5α, 13.5 µg/mL. Besides, the MIC was 16 µg/mL in assay [1]; 3.0 µg/mL in assay [2]; 2.0 µg/mL in assay [3]; “— (“—” indicates no antimicrobial activity being detected at the highest peptide concentration (32 μg/mL) tested in this study.)” against Botrytis cinerea; 10.5 µg/mL in the assay on Eco DH5α; “— (“—” indicates no antimicrobial activity being detected at the highest peptide concentration (32 μg/mL) tested in this study.)” with Cgl FST02. For the same substance, the MBC/MFC result in the assay with Botrytis cinerea and in the assay on Cgl FST02 was “— (“—” indicates no antimicrobial activity being detected at the highest peptide concentration (32 μg/mL) tested in this study.)” in each case.
